In EP0626016B1, “[…] […]” (BRITISH TECHNOLOGY GROUP LIMITED, priority 1992, dated 1993):
“And” between values parts separate entries of the source, which are not always exact repeats. Identical values can stand only once. Like-named read-outs stand apart in the source and are kept apart here.

Target: T1, HRP Type VIA (Armoracia rusticana, UniProt P00433)
T1 sequence (P00433 31-338): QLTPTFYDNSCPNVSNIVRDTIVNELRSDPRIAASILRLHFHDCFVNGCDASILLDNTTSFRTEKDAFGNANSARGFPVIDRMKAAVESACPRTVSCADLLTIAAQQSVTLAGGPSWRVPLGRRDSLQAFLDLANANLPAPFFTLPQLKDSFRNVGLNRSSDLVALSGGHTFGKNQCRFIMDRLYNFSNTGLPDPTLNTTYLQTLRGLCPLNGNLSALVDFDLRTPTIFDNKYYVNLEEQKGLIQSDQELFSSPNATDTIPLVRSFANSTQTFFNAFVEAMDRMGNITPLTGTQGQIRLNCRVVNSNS

[1] = 0.01 mg/ml, 10µl test compound, control value in brackets not reported
[2] = 0.1 mg/ml, 10µl test compound, control value in brackets not reported
[3] = 1 mg/ml, 10µl test compound, control value in brackets not reported

| Compound | (a) Decrease in background (without HRP with test cpd.) (0.01 mg/ml, 10µl test compound) | (b) Increase in signal (with HRP, with test cpd.) (0.01 mg/ml, 10µl test compound) | (c) Increase in signal: background ratio (0.01 mg/ml, 10µl test compound) | (d) Signal: Background: ratio (control = with no enhancer) [1] | (a) Decrease in background (without HRP with test cpd.) (0.1 mg/ml, 10µl test compound) | (b) Increase in signal (with HRP, with test cpd.) (0.1 mg/ml, 10µl test compound) | (c) Increase in signal: background ratio (0.1 mg/ml, 10µl test compound) | (d) Signal: Background: ratio (control = with no enhancer) [2] | (a) Decrease in background (without HRP with test cpd.) (1 mg/ml, 10µl test compound) | (b) Increase in signal (with HRP, with test cpd.) (1 mg/ml, 10µl test compound) | (c) Increase in signal: background ratio (1 mg/ml, 10µl test compound) | (d) Signal: Background: ratio (control = with no enhancer) [3] | (a) Decrease in background (without HRP with test cpd.) | (b) Increase in signal (with HRP, with test cpd.) | (c) Increase in signal: background ratio | (d) Signal: Background: ratio (control = with no enhancer) |
| --- | --- | --- | --- | --- | --- | --- | --- | --- | --- | --- | --- | --- | --- | --- | --- | --- |
| CCCCOB(OCCCC)c1ccc(-c2ccc(Br)cc2)cc1 [Compound 1038, 4-(4'-bromophenyl)phenyl-di-n-butoxyborane] | Y Y | Y Y | Y Y (Column (c) shows whether there was an increase in the signal:background ratio by over 25% of the control value (Y = yes) | 442.2 | Y Y | Y Y | Y Y (Column (c) shows whether there was an increase in the signal:background ratio by over 25% of the control value (Y = yes) | 2118.5 | Y | Y | Y (Column (c) shows whether there was an increase in the signal:background ratio by over 25% of the control value (Y = yes) | 903.8 (4.5) | – | – | – | – |
| Clc1cc(Cl)c(OB(Oc2cc(Cl)c(Cl)cc2Cl)c2cc(Cl)c(Cl)cc2Cl)cc1Cl [Compound 1039, di-(3',4',6'-trichlorophenoxy)-3,4,6-trichlorophenylborane] | – | – | – | – | – | – | – | – | – | – | – | – | Y | N | N (key: column (a) shows whether the test compound lowered the light output from the luminol-hydrogen peroxide solution (Y = yes; N = no) | 3.4 (2.9) |
| Clc1cc(Cl)cc(OB(Oc2cc(Cl)cc(Cl)c2)c2cc(Cl)cc(Cl)c2)c1 [Compound 1040, di-(3',5'-dichlorophenoxy)-3,5-dichlorophenylborane] | – | – | – | – | – | – | – | – | – | – | – | – | Y | N | – | 4.7 (4.5) and 3.9 (2.9) |
| Clc1ccc(OB(Oc2ccc(Cl)cc2)c2ccc(Cl)cc2)cc1 [Compound 1041, 4-chlorophenyl-di-(4'-chlorophenoxy)borane] | Y | Y | Y (Column (c) shows whether there was an increase in the signal:background ratio by over 25% of the control value (Y = yes) | 6.3 (1.9) | Y | Y | Y (Column (c) shows whether there was an increase in the signal:background ratio by over 25% of the control value (Y = yes) | 360.2 (2.8) | Y | Y | Y (Column (c) shows whether there was an increase in the signal:background ratio by over 25% of the control value (Y = yes) | 2606.2(4.5) | – | – | – | – |
| CCCCOB(OCCCC)c1ccc(Br)cc1 [Compound 1044, 4-bromophenyl-di-n-butoxyborane] | Y | Y | Y (Column (c) shows whether there was an increase in the signal:background ratio by over 25% of the control value (Y = yes) | 38.5 (1.9) | Y | Y | Y (Column (c) shows whether there was an increase in the signal:background ratio by over 25% of the control value (Y = yes) | 623.1 (2.7) | Y | N | Y (Column (c) shows whether there was an increase in the signal:background ratio by over 25% of the control value (Y = yes) | 147.1 (4.5) | – | – | – | – |
